US11034960B2, “PKLR inhibition in the treatment of NAFLD and HCC” (ScandiEdge Therapeutics AB, priority 2017, dated 2021)

What was measured:
[1] = test system: K562 cells; experiment: RT-PCR gene expression in K562 cells after interference by C75 or PKLR-specific siRNA for 24 hours; type: cell-based, human; settings: C75 at different concentrations (0, 40, 60 μM), FIG. 2A
Protocol: (§1) RNA was isolated for RT-PCR after interference for 24 hours; GAPDH was set as the internal reference. Cell counting was performed after interference for 72 hours. Data are presented as the means±standard errors of five independent experiments. Comparisons were performed by one-way ANOVA. Samples without any interference were assigned as controls. * represents a significant difference compared with the value in the control group (P<0.05).
(§2) For subsequent experiments, K562 and HepG2, human immortalized myelogenous leukemia and hepatic cell lines, respectively, were selected. Both cell lines were cultured in RPMI-1640 medium (R2405, Sigma-Aldrich) supplemented with 10% fetal bovine serum (FBS, F2442, Sigma Aldrich) and incubated in 5% CO2 humidity at 37° C. […]
(§3) Total RNA was isolated with TRIzol reagent (15596026, Thermo Fisher Scientific) after treatment with C75 or siRNA for 24 hours. The expression profiles of key genes (FASN, PKLR in K562/HepG2, and PNPLA3, PCSK9 only in HepG2 cells) in the co-expression network were measured and analyzed via quantitative real-time PCR with iTaq Universal SYBR Green One-Step Kit (1725151, Bio-Rad), using anchored oligo (dT) primer based on CFX96™ detection system (Bio-Rad). […] Variation in cell proliferation was detected with a Cell Counting Kit-8 (CCK-8, CK04, Dojindo) after interference by C75/siRNA for 72 hours. […]

[2] = test system: K562 cells; experiment: Cell growth of K562 cells (Cell Counting Kit-8) after interference for 72 hours; type: cell-based, human; settings: C75 (0, 20, 40, 60, 80 μM), FIG. 2B
Protocol: as §1, §2, §3

[3] = test system: HepG2 cells; experiment: RT-PCR gene expression in HepG2 cells after interference by C75 or PKLR-specific siRNA for 24 hours; type: cell-based, human; settings: C75 (0, 40, 60 μM), FIG. 2C
Protocol: as §1
For subsequent experiments, K562 and HepG2, human immortalized myelogenous leukemia and hepatic cell lines, respectively, were selected. Both cell lines were cultured in RPMI-1640 medium (R2405, Sigma-Aldrich) supplemented with 10% fetal bovine serum (FBS, F2442, Sigma Aldrich) and incubated in 5% CO2 humidity at 37° C.
To confirm the speculated CN, chemical inhibitors and RNA interference (RNAi) assays were chosen to interfere with the immortalized cell lines (including K562 and HepG2) and the subsequent candidate gene expression and cell growth patterns were observed. More specifically, the experimental protocol was as follows: (1) C75 (C5490, Sigma-Aldrich), as a well-known fatty acid synthase [FAS] inhibitor, was added to cells at 80% confluence with a final concentration of 20, 40, 60, or 80 μM (taking cells without C75 interference as the control); (2) cells at 80% confluence were separately transfected with […] of Silencer® pre-designed PKLR-targeted siRNAs (clone ID: 53 (SEQ ID NO:2 and SEQ ID NO:3), 54 (SEQ ID NO:2 and SEQ ID NO:5), Life Technologies) at 15 nM by using Lipofectamine® RNAiMAX (13778075, Life Technologies). Cells incubated in medium with non-target negative control siRNA at 15 nM (4390843, Life Technologies) were assigned as the control.
Total RNA was isolated with TRIzol reagent (15596026, Thermo Fisher Scientific) after treatment with C75 or siRNA for 24 hours. The expression profiles of key genes (FASN, PKLR in K562/HepG2, and PNPLA3, PCSK9 only in HepG2 cells) in the co-expression network were measured and analyzed via quantitative real-time PCR with iTaq Universal SYBR Green One-Step Kit (1725151, Bio-Rad), using anchored oligo (dT) primer based on CFX96™ detection system (Bio-Rad). GAPDH was set as the internal control for normalization. The primer sequences were SEQ ID NO:9 (FASN forward), SEQ ID NO:10 (FASN reverse), SEQ ID NO:11 (PKLR forward), SEQ ID NO:12 (PKLR reverse), SEQ ID NO:13 (PNPLA3 forward), SEQ ID NO:14 (PNPLA3 reverse), SEQ ID NO:15 (PCSK9 forward), SEQ ID NO:16 (PCSK9 reverse), SEQ ID NO:17 (GAPDH forward) and SEQ ID NO:18 (GAPDH reverse). Variation in cell proliferation was detected with a Cell Counting Kit-8 (CCK-8, CK04, Dojindo) after interference by C75/siRNA for 72 hours. […]

[4] = test system: HepG2 cells; experiment: Cell growth of HepG2 cells (Cell Counting Kit-8) after interference for 72 hours; type: cell-based, human; settings: different concentrations of C75 (0, 20, 40, 60, 80 μM), FIG. 2D
Protocol: as §1, §2, §3

[5] = test system: primary human hepatocytes; experiment: mRNA expression in primary human hepatocytes treated with C75 (TaqMan real-time PCR); type: cell-based; settings: 40 μg/ml C75, 4, 6, 8 or 24 hours, FIG. 3F
Protocol: Human primary hepatocytes were purchased from Biopredic International. Twenty-four hours after arrival (48 hours after isolation), human hepatocytes were treated with 40 μg/ml of C75 or dimethyl sulfoxide (DMSO) for 4, 6, 8 or 24 hours.
Total RNA was isolated from human hepatocytes and snap-frozen mouse liver with an RNeasy Mini Kit (Qiagen). cDNA was synthesized with a high-capacity cDNA Reverse Transcription Kit (Applied Biosystems) and random primers. The mRNA expression levels of genes of interest were analyzed via TaqMan real-time PCR in a ViiATM7 System (Applied Biosystems). The TaqMan Gene Expression assays used were Mm01263610_m1 (for mouse Pcsk9), Mm00662319_m1 (mouse Fasn), Mm00443090_m1 (mouse Pklr), Mm00504420_m1 (mouse Pnpla3), Mm01282499_m1 (mouse Hmgcr), Hs00545399_m1 (human PCSK9), Hs01005622_m1 (human FASN), Hs00176075_m1 (human PKLR), Hs00228747_m1 (human PNPLA3), and Hs00168352_m1 (human HMGCR) (all from Applied Biosystems). Hprt (mouse Mm03024075_m1) and GADPH (human Hs02758991_g1) (Applied Biosystems) were used as internal controls.

[6] = test system: PKLR; experiment: qPCR of target gene expression in HepG2 cells after siRNA or expression plasmid transfection; type: cell-based, human; settings: siRNA 50 nM, 72 hours, P<0.05
Protocol: HepG2 cell line was purchased from ATCC and selected for subsequent genetic modification. Cells were routinely cultured in humidified incubator with 5% CO2 at 37°. Cells were maintained by RPMI 1640 medium (R2405, Sigma-Aldrich) with 10% fetal bovine serum (FBS, F7524, Sigma-Aldrich).
For downregulation of target genes, PKLR, PNPLA3, and PCSK9, RNAi experiment was performed by silencer predesigned siRNA kit (Assay ID: 53 for PKLR, 121938 for PNPLA3 and 103966 for PCSK9, Thermo Fisher Scientific, USA). According to the manufacturer's instructions, HepG2 cells were treated by specific siRNA at 50 nM of final concentration using reverse transfection on the help of Lipofectamine RNAiMAX for 72 hours. Negative Control for transfection (4390843, Thermo Fisher Scientific, USA) was selected as standard for comparison from the same company. […]
Cells were treated for experiment when they were grown to 80% confluence. […] Expressions of target genes were validated by quantitative real-time PCR (Schmittgen and Livak, 2008). […] And the relative expression of each gene was calculated by 2-ΔΔCT method described before (Schmittgen and Livak, 2008). β-actin was selected as internal reference gene for normalization.
All results of measurement were presented/shown by mean±SD and One-way ANOVA was applied for comparisons in quantitative covariates. […]

[7] = test system: HepG2 cells; experiment: Lipidomics measurement of triglycerides in HepG2 cells with PKLR downregulation; type: cell-based, human
Protocol: To better clarify the genetic impact of PKLR on lipid deposition, cells were treated by siRNA and then tested by mass spectrometer for lipidomics data, sequentially. To be specific, HepG2 cells were transfected by siRNA (Assay ID: 53 with target on PKLR, applied by aforementioned method) for 72 hours and then harvested for lipidomics measurement. Correspondingly, cells treated with non-targeting siRNA (4390843, Thermo Fisher Scientific, USA) were assigned as control.
For lipidomics measurement, cells were extracted using butanol/methanol (BUME) as previously described (Lofgren et al., 2012). Internal standards (either deuterated or containing heptadecanoyl (C17:0) fatty acids) were added during the extraction. Analysis of triacylglycerols and phosphatidylcholines were made using direct infusion on a QTRAP 5500 mass spectrometer (Sciex, Concord, Canada) equipped with a robotic nanoflow ion source, the TriVersa NanoMate (Advion BioSciences, Ithaca, N.J.). Detection of triacylglycerols was made using neutral loss scanning in positive mode (Murphy et al., 2007). Phosphatidylcholines were analyzed in positive mode using m/z 184 (phosphocholine) as fragment ion (Brugger et al., 1997).

Row | Compound | FASN expression level [1] | PKLR expression level [1] | cell growth [2] | FASN expression level [3] | PCSK9 expression level [3] | PKLR expression level [3] | PNPLA3 expression level [3] | cell growth [4] | expression of FASN in relation to expression of PKLR, PCSK9, PNPLA3 [5] | inhibitory rate of PKLR expression (down-regulation vs negative control) [6] | decrease of total triglyceride compared to negative control ([7]; after adjusting based on the phosphatidylcholines levels) | triglyceride level ([7]; siRNA 72 hours vs non-targeting negative control, P<0.05) | total triglyceride adjusted based on the phosphatidylcholines levels ([7]; siRNA 72 hours, negative control 555.0±51.2)
1 | C=C1C(=O)OC(CCCCCCCC)C1C(=O)O (stereo not shown) [C75] | significantly decreased | significantly decreased | significant decrease | significantly decreased | significantly decreased | significantly decreased | significantly decreased | significantly decreased | interconnected | – | – | – | –
2 | siRNA 53: PKLR-targeted Silencer pre-designed siRNA; sense sequence SEQ ID NO:5, antisense sequence SEQ ID NO:6 (sense GGAGAUGAUCAAGGCCGGGTT; antisense CCCGGCCUUGAUCAUCUCCTT; chemistry not given here; listed as Homo sapiens) | – | – | – | – | – | – | – | – | – | 96% | about 15% | significant decrease | 471.7±45.5
